Drawing on a melting point compilation (Tetko et al.), this text covers melting point for 121 compounds.

One may read the melting point as the temperature of the solid-liquid transition. `Cc1oc(C(=O)O)cc1S(=O)(=O)N(C)C` registered a melting point of 151 to 153 °C. Then `O=C(O)c1ccc(SCCCO)cc1`, with 168 to 170 °C. Then `Cc1cc(C(=O)O)c(C)n1C(C)c1ccccc1` (stereo unspecified), with 135 to 137 °C; and `O=c1oc2ccc(O)cc2s1`, with 171 to 173 °C. In turn, `O=C(CCl)Nc1cc(S(=O)(=O)N2CCOCC2)ccc1Cl` registered a melting point of 131 to 133 °C. For the compound `O=C1CCC(=O)N1c1ncc(Br)s1`, the melting point was in the range of 150 to 152 °C. Take `O=C(O)CCN1C(=O)C2CCCCC2C1=O` (stereo unspecified): the melting point lay within 81 to 83 °C. The figure for `O=C(O)CN1CCC(=O)NC1=O` is 197 to 199 °C; for `Cc1cccc(COc2ccc(S(N)(=O)=O)cc2)c1` it is 159 to 161 °C; for `Nc1ccc(CC(=O)N2CCN(c3ccccc3)CC2)cc1` it is 201 to 203 °C. Then `O=Cc1cn(-c2ccccc2)nc1-c1ccccc1`, with 144 to 148 °C; and `O=c1[nH]c2ccccc2n1C1=CCCCC1`, with 181 to 183 °C. `CS(=O)(=O)c1cccc(OCC(=O)O)c1` came in with a melting point of 110 to 112 °C. For the compound `Cc1nc2ccccc2c(=O)n1-c1ccc(Br)cc1`, the melting point fell in the range of 176 to 178 °C. In turn, `O=C(CO)Nc1ccccc1` showed a melting point of 79 to 81 °C. For the compound `CCCCn1c(CCC(=O)O)nc2cc(S(=O)(=O)N3CCOCC3)ccc21`, the melting point was 136 to 138 °C. The compound `Cc1ccccc1Nc1nc2sc(C(=O)O)cc2s1` yielded a melting point of 232 to 234 °C. With `Nc1ccccc1NCCCn1ccnc1`, the melting point lay in the range of 160 to 162 °C. For `O=C(O)Cc1ccc(NC(=O)c2ccc(Br)o2)cc1`, the melting point lay in the range of 199 to 201 °C. Then `O=c1[nH]c2cc(Br)ccc2o1`, with 209 to 211 °C; and `CS(=O)(=O)c1ccc2nnn(O)c2c1`, with 192 to 194 °C; and `COc1cc(C)nc(C=O)c1`, with 57 to 59 °C. The figure for `O=C(NCO)c1ccc(Cl)cc1` is 145 to 147 °C; for `Sc1nnc2n(-c3ccccc3)c(-c3ccccc3)nn12` it is 237 to 239 °C; for `COC(=O)c1cccc(-c2ncno2)c1` it is 101 to 103 °C.

`CC(=O)CC(=O)Nc1cccnc1Cl` showed a melting point of 83 to 85 °C. For the compound `Cc1nc2c([nH]1)CCC(C(=O)O)C2` (stereo unspecified), the melting point is 229 to 231 °C.

Compound `Cc1cc(Cl)ccc1OCCCC(=O)NN` yielded a melting point of 37 to 39 °C. Consider `NS(=O)(=O)Cc1c(F)cccc1F`, for which the melting point lay in the range of 153 to 155 °C. The figure for `Cc1ccccc1-c1noc(=O)[nH]1` is 155 to 157 °C; for `c1cc2[nH]nnc2cn1` it is 240 to 242 °C; for `CC(C)C(Br)C(=O)Nc1ccccc1F` (stereo unspecified) it is 98 to 100 °C.

Regarding `Nc1cccc(NS(N)(=O)=O)c1`, the melting point fell in the range of 75 to 81 °C. Then `CC(Cl)C(=O)Nc1sc2c(c1C#N)CCC2` (stereo unspecified), with 204 to 206 °C. Then `Cc1nc(C(=O)O)c2n1CCCC2`, with 225 to 227 °C; and `Nc1c(-c2cccs2)nc2ccccn12`, with 188 to 190 °C. On to `OCCNc1ccc(Br)cc1`, for which the melting point lay in the range of 80 to 82 °C. Then `Cn1ncc([N+](=O)[O-])c1C(=O)O`, with 159 to 161 °C. `Cc1cc(S(=O)(=O)Cl)cc(C(=O)O)c1C` yielded a melting point of 179 to 181 °C. On to `Clc1ccnc(-c2ccccc2)n1`, for which the melting point lay in the range of 69 to 71 °C.

Compound `O=Cc1ccc(-c2ccncc2)cc1F` came in with a melting point of 107 to 109 °C. The figure for `Nc1nc2cc(Cl)cc(Cl)c2o1` is 247 to 249 °C; for `Cc1ccc(-c2nc3ccc(F)cc3n2C(C)C)cc1N` it is 183 to 185 °C; for `CC(C)S(=O)(=O)c1ccc(C(=O)O)cc1` it is 186 to 188 °C. Then `Cc1ccc(C(=O)CC#N)s1`, with 105 to 107 °C; and `NC(CNS(=O)(=O)c1ccc(F)cc1)=NO`, with 148 to 150 °C; and `COc1cc(C=O)c(SC)cc1OC`, with 111 to 113 °C. Consider `CCS(=O)(=O)c1ccc(Br)cc1`, for which the melting point is 53 to 55 °C.

The compound `CCC(=O)NC=C(Cl)Cl` yielded a melting point of 93 to 95 °C.

In turn, `O=C(O)CCNC(=O)c1ccc(F)cc1F` yielded a melting point of 118 to 120 °C.

`CCC(=O)NNC(=O)C(C)Cl` (stereo unspecified) showed a melting point of 157 to 159 °C.

On to `O=C(O)c1ccc(-c2ccncc2)[nH]c1=O`, for which the melting point lay in the range of 315 to 317 °C. The figure for `O=C1Nc2cc(I)ccc2C1=O` is 264 to 266 °C; for `O=S(=O)(Cl)c1cccc(-c2nnco2)c1` it is 87 to 89 °C; for `Cc1cc(Cl)c(N)cc1Cl` it is 86 to 88 °C.

The compound `O=C(O)C(F)(F)c1ccc([N+](=O)[O-])cc1` came in with a melting point of 129 to 131 °C. Then `CC(C)Oc1cnc(C(=O)O)cn1`, with 109 to 111 °C. The figure for `NS(=O)(=O)c1ccccc1I` is 161 to 163 °C; for `Cc1nn(C)c(C(F)(F)F)c1C(=O)O` it is 213 to 215 °C. For the compound `NS(=O)(=O)c1ccc2c(c1)CCCC2`, the melting point is 135 to 137 °C. Then `Cc1csc(NC(=O)CSCC(N)C(=O)O)n1` (stereo unspecified), with 169 to 171 °C; and `NNC(=O)CCN1CCN(c2ccccc2)CC1`, with 120 to 122 °C. The figure for `CC1CCN(C(=O)c2cccnc2Cl)CC1` is 96 to 98 °C; for `O=C(O)C1CCN(c2ccc3nnnn3n2)CC1` it is 199 to 201 °C; for `COc1c(Cl)ccnc1O` it is 169 to 171 °C. Take `COC(=O)c1ccc(Cl)c(N)c1`: the melting point lay in the range of 81 to 83 °C. Then `O=C(O)CSc1nc2cc(-c3ccccc3)sc2c(=O)n1Cc1ccccc1`, with 320 to 322 °C. Then `O=C(O)/C=C/c1cccc(-c2ccccc2)c1`, with 195 to 197 °C; and `Cc1nn(C)c(C)c1-c1cc(C(=O)O)[nH]n1`, with 281 to 283 °C; and `O=C(O)COc1ccc([N+](=O)[O-])c(F)c1`, with 149 to 151 °C. For `CC(C)COC(=O)N1CCC(C(=O)O)CC1`, the melting point was 69 to 71 °C.

`O=C(O)c1ccc(C(F)(F)C(F)(F)F)cc1` gave a melting point of 152 to 154 °C. `O=C(O)c1ccc(-c2ccc(-c3ccccc3)cc2)s1` came in with a melting point of 272 to 274 °C. In turn, `O=c1[nH]ccc2ccn(Cc3ccccc3)c12` displayed a melting point of 177 to 179 °C. Then `CCC1CCC2(CC1)NC(=O)NC2=O` (stereo unspecified), with 230 to 232 °C; and `CN1CCN(S(=O)(=O)c2ccc(N)cc2)CC1`, with 231 to 233 °C; and `N#Cc1cccc(NC(=O)c2cccc(N)c2)c1`, with 163 to 165 °C. Then `O=C(O)c1cc(S(=O)(=O)Cl)c(Br)cc1Br`, with 185 to 187 °C; and `Cc1cc(C)n(CCCCl)n1`, with 202 to 204 °C; and `COC(=O)CS(=O)c1ccc(Br)cc1` (stereo unspecified), with 84 to 86 °C. The figure for `Cn1ccnc1COc1ccc(C(=O)O)cc1` is 235 to 237 °C. `CC(=O)NC1(C(=O)O)CCC(C)CC1` (stereo unspecified) came in with a melting point of 211 to 213 °C. Then `Nc1cccc(-c2nc(C3CC3)no2)c1`, with 89 to 91 °C.

For the compound `O=C(O)CCCSc1nc2ccccc2[nH]1`, the melting point lay in the range of 120 to 122 °C. The figure for `CN(CC(=O)O)c1ccc(C(F)(F)F)cc1C=O` is 106 to 108 °C. Then `CC(=O)c1cc([N+](=O)[O-])ccc1C`, with 50 to 52 °C; and `NC(=Nc1ccccc1)N1CCCCC1`, with 61 to 63 °C. The figure for `CN(Cc1nn[nH]n1)C(=O)c1ccccc1` is 136 to 138 °C. With `Cc1nn2c(C=O)c(C(C)C)nc2s1`, the melting point is 40 to 42 °C. `NC(=NO)c1cccc(F)c1` yielded a melting point of 73 to 75 °C. The compound `CCn1nc(C(=O)O)c(=O)c2ccccc21` showed a melting point of 210 to 212 °C. In turn, `O=Cc1ccc(OCC(=O)O)c(Br)c1` displayed a melting point of 196 to 198 °C. Regarding `Cc1cc(C)c(C)c(OCCC(=O)O)c1`, the melting point was 129 to 131 °C. For `Cc1ccc(Cl)c(OC(C)C(=O)O)c1` (stereo unspecified), the melting point was in the range of 137 to 139 °C. Turning to `SCc1c(Cl)cccc1Cl`, the melting point is 44 to 46 °C. The figure for `O=C(Nc1cccc(O)c1)c1ccco1` is 164 to 166 °C.

The compound `NS(=O)(=O)Cc1cc(Cl)ccc1F` came in with a melting point of 186 to 188 °C. Then `NS(=O)(=O)c1ccc2c(c1)NCCC2`, with 164 to 166 °C. Then `CCSc1ccc(CC(=O)O)cc1`, with 74 to 76 °C; and `O=[N+]([O-])c1cc(S(=O)(=O)N2CCOCC2)ccc1N1CCOCC1`, with 154 to 156 °C; and `COc1ccccc1CC(N)=O`, with 127 to 129 °C. On to `O=C(O)c1cnc(-c2ccccc2F)s1`, for which the melting point was 187 to 189 °C. The figure for `N#Cc1ccc(-n2cnc(N)n2)cc1` is 238 to 240 °C.

As for `CS(=O)(=O)c1cccc(NC(=O)CCl)c1`, the melting point was 104 to 106 °C.

The compound `O=C(O)c1c[nH]c2ccc([N+](=O)[O-])cc12` registered a melting point of 255 to 257 °C.

The compound `O=C(O)c1cc(S(=O)(=O)Cl)c(F)cc1Br` showed a melting point of 148 to 150 °C.

In turn, `CC(=O)Nc1ccc(C)c(N)c1` had a melting point of 134 to 136 °C. Turning to `OC1CCCc2c[nH]nc21` (stereo unspecified), the melting point lay within 107 to 109 °C. In the case of `O=C(O)c1ccn(-c2cccc([N+](=O)[O-])c2)n1`, the melting point lay within 230 to 232 °C.

Turning to `CC(C)(C)OC(=O)N1CCCCC1(C)C(=O)O` (stereo unspecified), the melting point fell in the range of 92 to 94 °C.

For `O=C(c1ccc(Br)cc1)N1CCNCC1`, the melting point was 79 to 81 °C.

Compound `CC(C)CC(CNC(=O)OC(C)(C)C)C(=O)O` (stereo unspecified) registered a melting point of 76 to 78 °C. `C=CCSc1nnc(N)s1`: the melting point was 119 to 121 °C. Consider `CCc1ccc(N)cc1[N+](=O)[O-]`, for which the melting point was 44 to 46 °C. Then `CC(Cl)C(=O)Nc1nc2ccc(F)cc2s1` (stereo unspecified), with 126 to 128 °C. `CCOC(=O)c1c(C)n(C2CCCCC2)c2ccc(O)cc12` gave a melting point of 247 to 249 °C. The figure for `Nc1cccc(-n2cc[nH]c2=O)c1` is 155 to 157 °C. `CNc1cc(NC)c([N+](=O)[O-])cc1F` returned a melting point of 185 to 187 °C. In turn, `O=C(O)c1ccc(Cl)cc1NS(=O)(=O)c1ccccc1` returned a melting point of 189 to 191 °C. In the case of `NC(=O)COc1ccc(C=O)cc1`, the melting point lay in the range of 134 to 136 °C. The figure for `N=C(NN)c1cc(F)cc(F)c1` is 101 to 103 °C.
